In patent US20120258956A1, “USE OF A SPIROLIDE, ANALOGUES AND DERIVATIVES FOR TREATING AND/OR PREVENTING PATHOLOGICAL CONDITIONS LINKED TO THE TAU AND BETA-AMYLOID PROTEINS” (priority 2009, published 2012):

Experiments:
total tau = assay: Western blot of total basal tau (Tau46 antibody) in control non-transgenic cortical neurones; format: cell-based, mouse; settings: 100 nM
Protocol: The effect of spirolide on basal phosphorylation of tau was determined by Western blot techniques. An in vitro cortical neuronal model obtained from non-transgenic mice was used. Neuronal culture and sample processing was carried out in the same way as described in the previous example. The data obtained were corrected for the β-actin content of the samples.

[1] = oral; cited from earlier work
[2] = tested on: tau phosphorylated on Ser202; assay: Western blot of phosphorylated tau (AT8 antibody) in 3xTg-AD cortical neuronal cultures; format: cell-based, mouse; settings: for levels of tau phosphorylated on Serine 202: day 3 to day 10 in vitro, untreated 3xTg 129.1
Source text: (§1) In order to carry out the experiments of the present invention, either an in vitro cortical neuronal model with simultaneous overexpression of tau and β-amyloid, obtained from a model of Alzheimer's disease in triple-transgenic (3×Tg-AD or 3×Tg) mice, obtainable via the detailed procedure in the international patent application WO2003/053136 and provided by the title holders of this application, or an in vitro cortical neuronal model obtained from non-transgenic (No-Tg) mice.
The administration of 50 nM spirolide is equivalent to approximately 37 μg spirolide per kg of body weight. Intraperitoneal administration of an amount higher than 37 μg per kg body weight to a mouse reduced the levels of these proteins but produced toxic effects in the animal (Santokh et al., 2003. NeuroToxicology, 24: 593-604), however, the oral toxicity of spirolides is 1 mg per kg body weight.
For the determination of the effect of the spirolide compound of the present invention on the expression of tau and beta amyloid, the Western blot techniques were used. The primary neuronal cultures were incubated with the spirolide compound of the present invention added to the culture medium for a specific time. For the concentration of 50 nM, the treatment times were between 7 and 10 days in vitro and for other concentrations (0.1 to 25 nM) between 3 and 10 days in vitro. The cells were then processed following the usual protocols for Western blot. For Western blot studies, protein expression was evaluated using 6E10 anti-β-amyloid primary antibodies at a dilution of 1:500, AT8 anti-Tau (tau phosphorylated on Ser202, dilution 1:1000) and AT100 anti-tau (tau phosphorylated on Thr 212 and Ser214, dilution 1:1000).
For Western blot assays, neuronal cultures treated with the spirolide of the present invention were washed with cold phosphate buffer and lysed in 50 mM Tris-HCl buffer (pH 7.4) containing 150 mM NaCl, 1 mM EDTA, 1% Triton X-100, 2 mM DTT, 2.5 mM PMSF, 40 mg/ml aprotinin, 4 mg/ml leupeptin, 5 mM NaF, 1 mM Na3VO4, 1 mg/ml pepstatin A and 1 mg/ml benzamidine. Total protein concentration was determined by Bradford's method using bovine albumin as standard. Aliquots of cellular lysates containing 20 μg total protein were loaded in loading buffer (50 mM Tris-HCl, 100 mM dithiothreitol, 2% SDS, 20% glycerol, 0.05% bromophenol blue, pH 6.8), the proteins were separated by electrophoresis and transferred to PVDF membranes. The membranes were incubated with the primary antibodies, washed and then incubated with a secondary antibody bound to HRP. Immunoreactivity was detected by chemiluminescence. The same membranes were reincubated with an anti-β-actin primary antibody to carry out data correction for the sample protein content.

[3] = tested on: tau phosphorylated on Thr212 and Ser214; assay: Western blot of phosphorylated tau (AT100 antibody) in 3xTg-AD cortical neuronal cultures; format: cell-based, mouse; settings: 3xTg cultures, FIG. 3B, p<0.005, n=3
Source text: as §1
(§2) For the determination of the effect of the spirolide compound of the present invention on the expression of tau and beta amyloid, the Western blot techniques were used. […] For Western blot studies, protein expression was evaluated using 6E10 anti-β-amyloid primary antibodies at a dilution of 1:500, AT8 anti-Tau (tau phosphorylated on Ser202, dilution 1:1000) and AT100 anti-tau (tau phosphorylated on Thr 212 and Ser214, dilution 1:1000).
(§3) For Western blot assays, neuronal cultures treated with the spirolide of the present invention were washed with cold phosphate buffer and lysed in 50 mM Tris-HCl buffer (pH 7.4) containing 150 mM NaCl, 1 mM EDTA, 1% Triton X-100, 2 mM DTT, 2.5 mM PMSF, 40 mg/ml aprotinin, 4 mg/ml leupeptin, 5 mM NaF, 1 mM Na3VO4, 1 mg/ml pepstatin A and 1 mg/ml benzamidine. Total protein concentration was determined by Bradford's method using bovine albumin as standard. […]

[4] = administered intraperitoneally, rat and mouse; cited from earlier work
cortical neurones = assay: Alamar Blue cellular viability assay in primary cortical cultures; format: cell-based, mouse; settings: 72 hours in culture
Source text: as §1
Primary cortical cultures in the embodiment of the invention were obtained from 3×Tg-AD mouse embryos of 15-17 days gestation and the wild cultures were obtained from non 3×Tg control mouse embryos of the same strain. The effect of the compounds used in this invention on cellular viability was estimated by a fluorescence assay using the Alamar Blue viability indicator. To carry out the assay, primary cortical cultures seeded on 96-well plates were used. The neuronal cells were incubated in the culture medium with the spirolide of the present invention at different concentrations dissolved in dimethyl sulfoxide and the effect on neuronal viability was determined at different treatment times in vitro. The maximum concentration of 13-desmethyl spirolide evaluated was 100 nM and the concentration of Alamar blue was 10%. The volume of the reaction used was 200 μl. Fluorescence was measured at wavelengths of 530 nm (excitation) and 590 nm (emission).

β-amyloid = assay: Western blot of intracellular β-amyloid (6E10 antibody) in 3xTg-AD cortical neuronal cultures; format: cell-based, mouse
Source text: as §1, §2, §3

13-desmethyl spirolide
total basal tau levels in control neurones (total tau): 139.9 ± 27.3 % control | total basal tau levels in control neurones (total tau; listed as spirolide): did not affect | toxicity when administered orally [1]: not toxic | hyperphosphorylation of the tau protein ([2]; 0.017 μg per kg body weight (approx. 0.023 nM)): continued to be reduced | levels of tau phosphorylated on Serine 202 ([2]; 3xTg cultures, 0.1 nM): 129.8 ± 1.7 % control | levels of tau phosphorylated on Serine 202 ([2]; 3xTg cultures, 0.5 nM): 61.7 ± 12.4 % control | levels of tau phosphorylated on Serine 202 ([2]; 3xTg cultures, 10 nM): 70.3 ± 4.7 % control | levels of tau phosphorylated on Serine 202 ([2]; 3xTg cultures, 25 nM): 89.1 ± 2.2 % control | tau phosphorylation (AT8, Ser202; Western blot quantification) ([2]; 3xTg cultures, FIG. 2B, p<0.05, n=3): significant reduction | tau phosphorylation (AT100, Thr212 and Ser214; Western blot quantification) [3]: significant reduction | concentration causing toxic effects [4]: 37-40 μg/kg body weight | Viability of cortical neurones (cortical neurones; 2.5 nM): 104.3 ± 1.2 % control | Viability of cortical neurones (cortical neurones; 5 nM): 104 ± 1.3 % control | Viability of cortical neurones (cortical neurones; 10 nM): 104.3 ± 1.4 % control | Viability of cortical neurones (cortical neurones; 25 nM): 104.3 ± 0.7 % control | Viability of cortical neurones (cortical neurones; 50 nM): 103.4 ± 0.5 % control | Viability of cortical neurones (cortical neurones; 100 nM): 102.1 ± 1.5 % control | β-amyloid protein (β-amyloid; 0.5 nM): reducing β-amyloid protein | overexpression of β-amyloid (Western blot quantification, 6E10) (β-amyloid; 3xTg cultures, FIG. 1B, p<0.005 vs untreated transgenic cultures, n=3): significant reduction
